The results in this text go back to ChEMBL document CHEMBL1201862, “PubChem BioAssay data set” (2004).

Test [1] in a line: viability of HCT116 lacking mutant beta-catenin – cell-based, human colon tumor, dose response (AID 1045).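 Also: HCT116 colon tumor cells with beta catenin knocked out; cells exposed to compound for 60 hours.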 It counts as functional.
Test [2] is described as follows: HPDE-C7 pancreatic duct cell viability loss – fluorescence, HTS (AID 430). Type of test: functional, cell-based. The settings on record: Homo sapiens.
Test [3] can be described thus: viability loss of HPDE-C7K cells – cell-based, fluorescence, HTS, primary screen (AID 431). The settings on record: Homo sapiens. Type of test: functional.
Test [4] is described as follows: MIN6 cell viability loss – mouse insulinoma, cytotoxicity control, dose response (AID 2122).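 Also: confirmatory high-throughput counterscreen run to flag cytotoxic compounds.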 Type of test: functional.
The test system of test [5] is INS1. In words: INS-1E survival protection against cytokine death – cell-based, luminescence, retest, dose response (AID 449756).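 Also: cell death triggered by IL-1 beta plus TNF-alpha plus IFN-gamma mixture; protective hits raise ATP signal compared with cytokine alone wells.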 It counts as functional. As to conditions: Rattus norvegicus.
Test [6] concerns the target Nonstructural protein 1 (Influenza A virus, UniProt Q194T2). It counts as functional, Influenza A virus (A/California/07/2009(H1N1)).
A short description of test [7]: viability of PTEN-deleted HCT116 cells – cell-based, HCT116 PTEN knockout, dose response (AID 1047).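 Also: HCT116 colon tumor cells with PTEN knocked out; cells exposed to compound for 60 hours before readout; potency for loss of cell viability measured by luminescence.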 Type of test: functional.
Test [8] can be described thus: decrease of insulin promoter-GFP reporter – imaging, high-content screening, mouse beta cells (AID 1628). The settings on record: MIN6. It counts as functional.
The target in test [9] is Heat shock protein HSP 90-alpha (Homo sapiens, UniProt P07900). In words: Luminescence-based dose response biochemical high throughput screening assay for inhibitors of the Heat Shock Protein 90 (HSP90). [Related pubchem assays: 1831 (Summary AID.), 1846 (Confirmation screen.), 1789 (Primary screen.)].
The target of test [10] is Voltage-gated inwardly rectifying potassium channel KCNH2 (Homo sapiens, UniProt Q12809). In words: concentration-dependent hERG rescue from blockers – cell-based, thallium flux, dose response (AID 2121). It counts as ADME. In general terms: hERG is a cardiac potassium channel; its block is linked to QT prolongation.
Test [11] addresses T1, Bcl-2-like protein 10 (Homo sapiens, UniProt Q9HD36).
T1 sequence (Q9HD36 whole entry): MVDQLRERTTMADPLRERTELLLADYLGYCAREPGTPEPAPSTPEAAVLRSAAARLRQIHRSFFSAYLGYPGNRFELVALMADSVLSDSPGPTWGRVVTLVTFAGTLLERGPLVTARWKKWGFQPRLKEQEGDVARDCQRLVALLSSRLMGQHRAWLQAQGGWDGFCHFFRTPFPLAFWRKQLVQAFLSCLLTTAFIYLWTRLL
In words: Bcl-B/TR3 peptide binding disruption – biochemical, fluorescence polarization, FITC-TR3 peptide, selectivity assay for Bfl-1 inhibitor project, primary screen (AID 748).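 Also: fluorescence polarization from a fluorescein-labelled TR3 peptide binding purified Bcl-B.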 In general terms: In fluorescence polarisation assays a small probe gives low polarisation when free and higher when bound to something large.

Test [12] deals with Estrogen receptor beta (Homo sapiens, UniProt Q92731). In words: blockers of SRC-3 recruitment to ERβ – biochemical, ELISA, streptavidin-HRP readout, orthogonal assay, confirmation (AID 1060). On the technique in general: An ELISA detects its analyte on a solid surface through an enzyme-linked reagent.
A short description of test [13]: Luminescence-based cell-based high throughput dose response assay to identify activators of the DAF-12 from the parasite S. stercoralis (ssDAF-12). Type of test: functional.
Test [14] deals with T2, Oxysterols receptor LXR-beta (Homo sapiens, UniProt P55055).
T2 sequence (P55055 whole entry): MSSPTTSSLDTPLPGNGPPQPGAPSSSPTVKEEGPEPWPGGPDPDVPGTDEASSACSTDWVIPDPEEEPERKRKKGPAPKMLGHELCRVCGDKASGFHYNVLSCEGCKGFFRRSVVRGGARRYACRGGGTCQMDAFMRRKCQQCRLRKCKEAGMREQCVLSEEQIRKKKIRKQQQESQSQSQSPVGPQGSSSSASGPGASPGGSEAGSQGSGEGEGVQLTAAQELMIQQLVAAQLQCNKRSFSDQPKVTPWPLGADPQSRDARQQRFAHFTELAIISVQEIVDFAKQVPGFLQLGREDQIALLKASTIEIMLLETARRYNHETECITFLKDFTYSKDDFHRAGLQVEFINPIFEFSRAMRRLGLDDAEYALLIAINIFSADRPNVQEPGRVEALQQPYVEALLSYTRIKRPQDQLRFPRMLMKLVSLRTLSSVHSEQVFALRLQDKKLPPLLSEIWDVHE
The test can be described thus: LXR agonists, Gal4 luciferase reporter, dose response, counter-screen for ssDAF-12 agonist project, cell-based, luminescence, HEK293, S. stercoralis campaign (AID 720737). The settings on record: read-out: IC50 (the source's name). It counts as functional.

A short description of test [15]: cells. It counts as functional, cell-based.
Test [16] can be described thus: blockers of bursicon-stimulated LGR2 cAMP reporter – cell-based, HEK293, CRE-luciferase reporter, cherry pick, set 2, dose response (AID 743343).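 Also: transfected cells were stimulated with diluted bursicon conditioned medium after compound addition.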 It counts as functional.
A short description of test [17]: HEK-293T viability loss, compound-treated – cell-based, uHTS hits, cytotoxicity control for B/T-cell NF-kB inhibitor project, dose response (AID 489019).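 Also: IC50 reflects cytotoxicity as loss of cell viability.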 Type of test: functional.
A short description of test [18]: alpha-synuclein stem-loop translation blockers – luminescence, H4 neuroglioblastoma cells, dose confirmation, confirmation (AID 2454).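 Also: H4 neuroglioblastoma cells carrying an alpha-synuclein 5'UTR luciferase reporter; potency for inhibition of the luciferase signal.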 Type of test: functional, cell-based.
Test [19] relates to Jurkat. In words: blockers of NF-kB activation in T cells – Jurkat, luciferase reporter, luminescence, B- and T-cell, dose response (AID 489004).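 Also: NF-kB luciferase reporter Jurkat cells stimulated with PMA plus ionomycin.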 As to conditions: Homo sapiens. Type of test: functional, cell-based.
The nature of test [20]: blockade of melanocortin 4 receptor signaling – cell-based, plate reader, cherry pick, counter-screen for LGR2 antagonist project, dose response (AID 743444).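 Also: transfected HEK 293 cells stimulated with alpha-MSH peptide; potency of inhibitors of the alpha-MSH evoked signal.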 It counts as functional.
Test [21] can be described thus: luciferase reporter signal reduction – luminescence, H4-C neuroglioblastoma cells, dose response (AID 2458).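 Also: H4 neuroglioblastoma cells stably carrying a luciferase reporter gene fusion.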 It counts as functional, cell-based.
Test [22] in a line: blockers of HIV-1 envelope-mediated cell-cell fusion – cherry-pick, dose response (AID 652057). It counts as functional, cell-based.
The nature of test [23]: alpha-synuclein stem-loop luciferase translation blockers – H4 neuroglioma cells, luminescence, confirmation (AID 1988). It counts as functional, cell-based.
A short description of test [24]: blockers of HIV-1 ZM109 envelope-driven cell-cell fusion – HeLa effector, CEM target cells, luciferase, cherry-pick, dose response (AID 652058).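 Also: luciferase signal from HIV-1 Env mediated cell-cell fusion of effector and target cells.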 Type of test: functional, cell-based.
Test [25] can be described thus: off-target signal loss in HeLa-CEM21 co-culture – HeLa F-luc CTL cells, cherry-picked, counter-screen for HIV-1 Env fusion inhibitor project, dose response (AID 652040).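 Also: potency for signal decrease marking cytotoxic or nonspecific inhibition.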 Type of test: functional, cell-based.
A short description of test [26]: HIV-1 AD8 envelope cell-cell fusion blockers – cherry-pick, dose response (AID 652062).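 Also: luciferase signal from cell-cell fusion driven by HIV-1 clade B AD8 Env; potency is for inhibitors of fusion seen as a drop in luminescence.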 Type of test: functional, cell-based.
The target in test [27] is T3, Tyrosine-protein phosphatase non-receptor type 7 (Homo sapiens, UniProt P35236).
T3 sequence (P35236 whole entry): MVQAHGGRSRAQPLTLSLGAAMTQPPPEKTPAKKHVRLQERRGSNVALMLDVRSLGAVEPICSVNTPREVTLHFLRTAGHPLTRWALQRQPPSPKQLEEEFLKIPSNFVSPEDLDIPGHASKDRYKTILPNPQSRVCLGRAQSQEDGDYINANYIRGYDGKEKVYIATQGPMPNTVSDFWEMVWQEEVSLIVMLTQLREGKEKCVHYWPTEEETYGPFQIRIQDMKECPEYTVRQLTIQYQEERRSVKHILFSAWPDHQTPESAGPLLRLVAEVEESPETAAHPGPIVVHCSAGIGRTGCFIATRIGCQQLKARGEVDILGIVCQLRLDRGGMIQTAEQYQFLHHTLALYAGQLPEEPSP
The test can be described thus: HePTP tyrosine phosphatase activity blockers – biochemical, absorbance, leukemia target, primary screen (AID 521). Type of test: functional.

Test [28] addresses Estrogen receptor (Homo sapiens, UniProt P03372).

The source made the active and inactive calls.

Sequence of Nonstructural protein 1 (Q194T2 whole entry): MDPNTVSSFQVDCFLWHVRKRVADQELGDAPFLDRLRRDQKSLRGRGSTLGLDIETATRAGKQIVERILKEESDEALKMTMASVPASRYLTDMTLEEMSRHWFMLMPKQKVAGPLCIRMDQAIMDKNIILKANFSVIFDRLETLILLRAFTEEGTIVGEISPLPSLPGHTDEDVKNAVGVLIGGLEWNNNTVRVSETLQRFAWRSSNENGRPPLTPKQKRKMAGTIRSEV
Sequence of Voltage-gated inwardly rectifying potassium channel KCNH2 (Q12809 whole entry): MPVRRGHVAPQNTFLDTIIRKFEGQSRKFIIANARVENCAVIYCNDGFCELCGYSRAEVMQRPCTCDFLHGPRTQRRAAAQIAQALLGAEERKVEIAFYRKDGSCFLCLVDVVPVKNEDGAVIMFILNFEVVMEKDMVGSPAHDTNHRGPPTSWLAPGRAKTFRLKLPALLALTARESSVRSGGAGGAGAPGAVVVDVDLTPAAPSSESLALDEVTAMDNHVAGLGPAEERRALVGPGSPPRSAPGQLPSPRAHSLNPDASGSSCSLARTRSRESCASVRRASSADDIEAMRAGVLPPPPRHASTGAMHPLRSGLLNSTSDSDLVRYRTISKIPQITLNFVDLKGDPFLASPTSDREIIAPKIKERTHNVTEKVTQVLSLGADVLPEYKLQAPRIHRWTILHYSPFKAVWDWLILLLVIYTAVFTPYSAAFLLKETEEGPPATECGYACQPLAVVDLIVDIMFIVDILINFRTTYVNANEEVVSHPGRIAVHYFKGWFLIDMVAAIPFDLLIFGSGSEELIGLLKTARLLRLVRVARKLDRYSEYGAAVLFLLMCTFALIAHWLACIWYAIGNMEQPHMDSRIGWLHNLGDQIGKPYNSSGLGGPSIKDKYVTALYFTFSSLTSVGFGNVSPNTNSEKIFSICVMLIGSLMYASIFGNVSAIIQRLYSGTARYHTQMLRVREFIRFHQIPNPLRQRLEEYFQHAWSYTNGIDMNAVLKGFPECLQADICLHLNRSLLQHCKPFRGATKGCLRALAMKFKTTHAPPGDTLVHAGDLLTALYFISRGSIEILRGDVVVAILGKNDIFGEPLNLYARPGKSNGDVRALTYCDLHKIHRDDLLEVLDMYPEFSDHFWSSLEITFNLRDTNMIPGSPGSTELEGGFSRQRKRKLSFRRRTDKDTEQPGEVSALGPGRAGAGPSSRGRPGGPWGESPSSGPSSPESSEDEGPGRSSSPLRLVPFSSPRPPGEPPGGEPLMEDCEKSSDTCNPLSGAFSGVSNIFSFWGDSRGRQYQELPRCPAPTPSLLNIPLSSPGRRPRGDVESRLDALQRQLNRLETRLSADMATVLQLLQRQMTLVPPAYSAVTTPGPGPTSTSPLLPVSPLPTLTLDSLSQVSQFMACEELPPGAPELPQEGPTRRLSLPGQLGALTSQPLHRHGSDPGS
Sequence of Estrogen receptor (P03372 whole entry): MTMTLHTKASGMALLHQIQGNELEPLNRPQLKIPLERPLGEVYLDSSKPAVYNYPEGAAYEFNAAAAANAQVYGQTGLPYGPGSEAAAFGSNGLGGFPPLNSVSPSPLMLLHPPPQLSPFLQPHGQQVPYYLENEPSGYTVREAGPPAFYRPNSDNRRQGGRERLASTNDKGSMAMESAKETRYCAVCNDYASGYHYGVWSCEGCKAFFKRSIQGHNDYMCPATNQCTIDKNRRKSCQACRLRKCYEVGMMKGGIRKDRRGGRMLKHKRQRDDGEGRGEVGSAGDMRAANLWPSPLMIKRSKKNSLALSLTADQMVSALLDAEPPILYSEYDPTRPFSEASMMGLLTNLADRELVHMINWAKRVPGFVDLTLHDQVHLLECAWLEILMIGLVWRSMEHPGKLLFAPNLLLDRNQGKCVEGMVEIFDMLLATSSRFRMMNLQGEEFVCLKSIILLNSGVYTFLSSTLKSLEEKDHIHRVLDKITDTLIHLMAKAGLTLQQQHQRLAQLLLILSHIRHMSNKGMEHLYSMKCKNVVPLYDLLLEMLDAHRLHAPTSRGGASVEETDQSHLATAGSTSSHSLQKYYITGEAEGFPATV
Sequence of Estrogen receptor beta (Q92731 whole entry): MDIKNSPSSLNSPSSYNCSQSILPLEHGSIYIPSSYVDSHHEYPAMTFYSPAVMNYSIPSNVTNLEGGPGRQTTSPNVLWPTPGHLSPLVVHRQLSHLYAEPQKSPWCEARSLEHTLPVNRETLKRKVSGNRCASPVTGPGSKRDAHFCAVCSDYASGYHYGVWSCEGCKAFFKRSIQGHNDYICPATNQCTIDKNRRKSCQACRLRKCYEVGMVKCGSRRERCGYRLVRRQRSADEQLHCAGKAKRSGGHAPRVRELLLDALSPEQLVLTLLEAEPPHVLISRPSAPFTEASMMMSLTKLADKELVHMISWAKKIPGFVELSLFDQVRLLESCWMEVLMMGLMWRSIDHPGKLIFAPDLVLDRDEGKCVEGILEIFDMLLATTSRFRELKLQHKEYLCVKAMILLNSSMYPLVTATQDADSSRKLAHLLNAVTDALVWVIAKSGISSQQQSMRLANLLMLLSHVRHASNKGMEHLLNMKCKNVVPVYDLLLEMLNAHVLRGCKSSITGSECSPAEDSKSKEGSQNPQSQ

Turning to `CCOC(=O)C(C(C)=O)c1c(Br)c(O)c(O)c2c(C(=O)c3ccc(C)cc3)coc12` (stereo not given), the EC50 was 15.8 µM (active) in test [1], 3.41 µM (active) in [2], 3.75 µM (active) in [3] and 18.8 µM (active) in [7]. Moreover, the figures for the IC50 in test [4], in [6] and in test [8] were 3.43 µM (active), > 100 µM (active) and 4.26 µM (active), respectively. Also, the AC50 in test [5] is 3.56 µM (active).
Take `Cc1ccc(OCc2ccc(C(=O)O)o2)cc1C`: the IC50 in test [9] is 1.75 µM (active).
With `CS(=O)(=O)c1sc(C(=O)NC(=S)Nc2ccc(OC(F)(F)F)cc2)c2c1C=CCC2`, in test [10], the EC50 was 1.01 µM (active).
For `COc1ccc(NC(=O)c2noc3c2CCC3)cc1`, the IC50 is 12.6 µM (active) in test [11] and < 0.023 µM (not active) in test [12].
`COc1cc(SC)ccc1C(=O)Nc1ccc2c(c1)CCC2`: the IC50 in test [13] was > 67.5 µM (inactive). For the same compound, the EC50 in [14] was > 67.5 µM (inactive).
Regarding `Cc1ccc(C(=O)CN2C(=O)c3ccccc3S2(=O)=O)cc1`, the EC50 in test [15] is 0.315 µM (active); in [18], 0.363 µM (active); in [21], 0.263 µM (active); in test [23] it was < 0.1 µM (active). Also, the AC50 in [16] was 0.594 µM (active); in test [20], 0.548 µM (active); in test [22], 1.81 µM (active); in test [24], 17.9 µM (active); in test [25], 3.11 µM (active); in [26], 4.12 µM (active). Besides, the values for the IC50 in test [17], in [19] and in test [9] were > 80 µM (inactive), 1.57 µM (active) and 4.64 µM (active), respectively.
Consider `N=c1c2c3c(sc2ncn1CCN1CCOCC1)CCCC3`, for which the 50% inhibitory concentration (IC50) in test [27] was > 100 µM (not active).
As to `Cc1cc(NC(=O)CSc2nc3c(c(=O)n2CCc2ccccc2)SC(C)C3)no1` (stereo not given), in test [28], the IC50 is 33.6 µM (not active).
For `CCn1c(COc2ccccc2)nnc1SCC(=O)NC1CCCCC1`, the IC50 in test [27] is > 100 µM (not active).

One may read the IC50 as the midpoint of a concentration-inhibition curve. In general, AC50 refers to the midpoint of the concentration-response curve, whichever way the signal moves.
